How the values were obtained:
Assay in all cases: CTG-3D luminescence at 96 h relative to day-0 seeding control (ratio to day 0); higher = more growth / less cytotoxicity; PDxO 3D drug screen, 96 h, CTG-3D normalised to day-0 seeding control.
[1] = test system: HCI-024 (organoid from a breast cancer xenograft)
[2] = test system: HCI-012 (organoid from a breast cancer xenograft)
[3] = test system: HCI-003.E2 (organoid from an ER-positive breast cancer xenograft)
[4] = test system: MDA-MB-231
[5] = test system: HCI-027 (organoid from a triple-negative breast cancer xenograft)
[6] = test system: HCI-019 (organoid from a triple-negative breast cancer xenograft)
[7] = test system: HCI-023 (organoid from a triple-negative breast cancer xenograft)

CC1(C)CCC(c2ccc(Cl)cc2)=C(CN2CCN(c3ccc(C(=O)NS(=O)(=O)c4ccc(N[C@H](CCN5CCOCC5)CSc5ccccc5)c(S(=O)(=O)C(F)(F)F)c4)cc3)CC2)C1 [navitoclax]
CTG-3D luminescence at 96 h
Settings | 12.5 pM | 0.00025 µM | 0.005 µM | 0.1 µM | 1 µM | 10 µM | 100 µM | 625 fM
[1], days in culture: 105 | 1.44 | 1.51 | 1.24 | 1.47 | 1.01 | 1.1 | 0.182 | 1.59
[1], days in culture: 122 | 1.5 | 2.32 | 1.85 | 1.88 | 1.6 | 1.52 | 0.266 | 2.7
[1], days in culture: 163 | 1.88 | 2.19 | 1.74 | 2.8 | 1.99 | 1.74 | 0.357 | 2.54
[2], days in culture: 143 | 1.69 | 2.26 | 2.2 | 2.7 | 2.07 | 2.21 | 0.239 | 1.81
[2], days in culture: 162 | 2.02 | 2.3 | 2.33 | 2.56 | 2.17 | 2.21 | 0.134 | 2.94
[2], days in culture: 201 | 3.09 | 2.12 | 1.75 | 1.93 | 2.2 | 0.271 | -0.19 | 1.96
[5], days in culture: 176 | 2.47 | 2.17 | 3.4 | 1.89 | 2.39 | 1.32 | -0.194 | 3.28
[5], days in culture: 194 | 2.18 | 1.78 | 2.01 | 2.17 | 2.24 | 1.75 | 0.198 | 2.27
[5], days in culture: 201 | 3.21 | 2.62 | 3.27 | 3.18 | 2.73 | 1.5 | 0.0321 | 2.76
[6], days in culture: 110 | 1.8 | 1.8 | 1.56 | 1.84 | 0.469 | 0.538 | 0.0111 | 2.31
[6], days in culture: 131 | 2.39 | 3.6 | 3.23 | 2.91 | 1.25 | 0.358 | 0.0147 | 3.96
[6], days in culture: 152 | 2.86 | 2.49 | 3.21 | 1.89 | 0.769 | 0.582 | 0.00119 | 2.39
[7], days in culture: 111 | 1.82 | 1.42 | 1.19 | 1.26 | 0.739 | 0.432 | 0.0151 | 1.83
[7], days in culture: 128 | 1.58 | 1.8 | 1.53 | 1.82 | 1.1 | 0.995 | 0.00828 | 1.58

CTG-3D luminescence at 96 h
Settings | 12.5 pM | 0.00025 µM | 0.005 µM | 0.1 µM | 1 µM | 10 µM | 100 µM | 625 fM
[3] | 1.98 | 2.09 | 1.64 | 2.22 | 1.78 | 1.12 | 0.0236 | 1.76
[4] | 4.52 | 4.44 | 4.56 | 4.28 | 3.8 | 1.42 | 0.000199 | 4.6
